Measurements: US20220192935A1, “COMPOSITION FOR A TOPICAL APPLICATION ON THE SKIN” (Biodermic Health & Beauty GmbH & Co. KG, priority 2019, published 2022)

Test system: organisms of the skin flora (Corynebacterium minutissimum, Streptococcus mitis, Staphylococcus epidermidis, Staphylococcus galinarum, Propionibacterium acnes …)
Assay: Investigation of single ingredients for influence on the growth of the organisms of the skin flora
Assay type: cell-based
Details: single ingredient, result in words
Excerpt: The surprising positive effect of the above-described substances or substance groups on the growth of the microorganisms of the skin flora has been confirmed by investigations on microorganisms of the skin flora. Specifically, this involved analyzing the growth of the following species: Corynebacterium minutissimum, Streptococcus mitis, Staphylococcus epidermidis, Staphylococcus galinarum, Propionibacterium acnes, and Malassezia furfur, Malassezia sympodialis, Malassezia globosa and Malassezia restricta. The positive effect can be attributed to the fact that the microorganisms present on the skin cannot make use of the substances investigated. […] Investigations on Corynebacterium minutissimum, Streptococcus mitis, Staphylococcus epidermidis, Staphylococcus galinarum, Propionibacterium acnes, and Malassezia furfur, Malassezia sympodialis, Malassezia globosa and Malassezia restricta have confirmed this effect. The positive effect of these emulsifiers in terms of their influence on the growth of organisms of the skin flora has been confirmed by investigations on Corynebacterium minutissimum, Streptococcus mitis, Staphylococcus epidermidis, Staphylococcus galinarum, Propionibacterium acnes, and Malassezia furfur, Malassezia sympodialis, Malassezia globosa and Malassezia restricta. […]

## Caprylic/Capric Triglyceride
  influence on the growth of the organisms of the skin flora: No growth-promoting influence was detected
